Tested on: bovine liver (simulated tissue)
Experiment: Bolus / chemical ablation test in sample bovine liver tissue
From the text: For example, a solid active agent (HAuCl4) may be added to water at room temperature, and mixed for approximately ten (10) minutes, then filtered and ready to use. The active agent (HAuCl4) solution may be stored for up to a year without stability issues. The hydrophilic nature of the solution facilitates the delivery and spread of the active agent (HAuCl4) throughout the entire target tissue/cavity, while avoiding formation of lumps in the solution or patches of tissue without the solution when delivered.
FIGS. 2A-C and FIGS. 3-5 illustrate exemplary ablative effects of the active agent (HAuCl4) 300 when applied to a sample tissue. FIG. 2A illustrates a liquid DI water solution of active agent (HAuCl4) 300, a syringe 400 and a sample bovine liver tissue 500. […] FIG. 2C depicts the ablated tissue 500.
Various tests were performed in sample tissue 500. For example, in some tests the active agent (HAuCl4) 300 (1 ml) was delivered into the tissue 500 having a constant time of exposure (e.g., 2 minutes at room temperature) but the bolus size (ablated volume) was measured under different active agent (HAuCl4) concentrations (FIG. 3). Data contained in FIG. 3 was measured three times and obtained the average value for the graph, as shown. As known in the art, bolus tests are common to understand diffusion and effectiveness of ablative technologies.
In another test, the active agent (HAuCl4) concentration was maintained constant at 0.5% in an injected 1 ml into the sample tissue but the bolus size was measured at different times (FIG. 4). Data reference in FIG. 4 was measured five times and obtained the average value for the graph, as shown. […] Additionally, the bolus size is time dependent but after 3 minutes, 1 ml of 0.5% HAuCl4 DI-water solution stopped the reaction because the solution is not strong enough to penetrate the tissue further. Therefore, the active agent (HAuCl4) chemical ablation is quantity and time dependent.
FIG. 5 illustrates sample tissue ablation profiles measured and characterized for a range of active agent (HAuCl4) concentration (0.10%, 0.25% and 1% of HAuCl4 within 2 minutes, and a variety of bolus sizes). Optimization was performed to select 0.5% of HAuCl4 in order to achieve desirable ablation profile (rage of 4-9 mm ablation depth of tissue). Additional optimization could be performed to achieve shallower profiles (if desired).

Question: Which results are given for `[Au+3].[Cl-].[Cl-].[Cl-].[Cl-].[H+]` [HAuCl4, chloroauric acid]?
Answer: penetration depths in the tissue from the surface of the tissue (0.5% HAuCl4 diluted in water, up to three (3) minutes of exposure): 4-9 mm; ablation depth of tissue (ablation profile) (0.5% of HAuCl4 selected by optimization): 4-9 mm; bolus size (ablated volume) versus concentration (1 ml injected, 2 minutes at room temperature, different concentrations (FIG. 3)): increases with the active agent (HAuCl4) concentration; time after which the reaction stopped (bolus size versus time) (1 ml of 0.5% HAuCl4 DI-water solution (FIG. 4)): 3 min
